# Data reported in patent US20150196520A1, “METHOD AND PHARMACEUTICAL COMPOSITION FOR TREATING DERMATOPHYTOSIS” (priority 2012, published 2015).
# Like-named read-outs stand apart in the source and are kept apart here.
# Key:
# E. floccosum IFM 53345 = assay: CLSI broth microdilution drug-sensitivity test; type: cell-based, Epidermophyton floccosum
# Method: (§1) The antimicrobial activity of the pharmaceutical composition for dermatomycosis according to the present invention was evaluated through drug-susceptibility tests against major pathogenic fungi performed in compliance with the guidelines of the Clinical Laboratory Standards Institute (CLSI), USA. The pathogenic fungi selected were genus Tricophyton (T. rubrum, T. mentagrophytes, T. tonsurans), genus Microsporum (M. gypseum), genus Epidermophyton (E. floccosum), genus Candida (C. albicans), genus Aspergillus (A. fumigatus), and genus Cryptococcus (C. neoformans). […] In the drug-susceptibility tests, Mg ions and Ca ions necessary for conidia (spores) of the fungus to germinate growth were included in the nutrient medium.
# (§2) The antifungal activity of the compounds of the present invention was evaluated by performing drug-sensitivity tests against various pathogenic fungi. The testing method was a broth microdilution method in conformance with the guidelines of the Clinical Laboratory Standards Institute (CLSI), USA.
# M. furfur = assay: Malassezia drug sensitivity test (Sugita et al., mLNA medium); type: cell-based
# Method: as §1
# (§3) The antifungal activity of the compounds of the present invention against Malassezia spp. was evaluated in drug sensitivity tests against human-related genus Malassezia species, performed in compliance with the methodology of Sugita et al. (2005). The test drug and mLNA nutrient medium were added to the wells of a 24-well microtiter plate with a total quantity of 2 mL. A 50 μL microbe suspension with a concentration of approximately 1×10^4 cell/mL was added to the medium, which was cultured aerobically for 7 days at 32° C. In comparison to the control (no test drug), the density required to completely prevent growth was set as the minimum inhibitory concentration (MIC).
# tinea unguium = assay: Treatment of tinea unguium, case reports; type: in vivo, humans
# tinea corporis = assay: Topical treatment of tinea corporis, case reports; type: in vivo, humans; conditions: for healing of tinea corporis: Example 10: 0.01% test solutions
# Excerpt: (§4) The compounds of the present invention were investigated with respect to the treatment of dermatomycosis affecting humans. […] The cases of tinea used in the investigation involved selection of various types of tinea such as vesicular-type tinea, interdigital-type tinea, hyperkeratotic tinea, tinea corporis, tinea unguium, etc.
# (§5) The dermatophytes that cause dermatophytosis, a typical form of dermatomycosis, are mainly Trichophyton rubrum and Trichophyton mentagrophytes. […] This confirmation of dermatophytes involved planting a sample of skin or nail of an area affected with tinea in a Candida nutrient medium (Nissui Pharmaceutical Co., Ltd.), isolating the dermatophytes that grow, and then confirming the dermatophytes through gene analysis or observation of morphology. A more detailed description of the fungus identification is provided in the examples.
# A 1% test solution of ethylenediaminetetraacetic acid trisodium salt prepared in the same manner as Example 6 was applied by spraying once a day onto an area, approximately 5 cm wide and 3 cm long, of a chest affected by tinea corporis, which was denoted by flaring redness.
# To 119 mg of ethylenediaminetetraacetic acid tetrasodium salt tetrahydrate was added 20% ethanol to prepare 1 L of 0.01% test solution. This test solution was applied by spraying, three times a day, to tinea corporis denoted by red flaring ridges that had occurred on the thigh.
# T. rubrum IFM 59814 = assay: CLSI broth microdilution drug-sensitivity test; type: cell-based, Trichophyton rubrum
# Method: as §1, §2
# A. fumigatus IFM4942 = assay: CLSI broth microdilution drug-sensitivity test; type: cell-based
# Method: as §1, §2
# C. albicans IFM 5740 = assay: CLSI broth microdilution drug-sensitivity test; type: cell-based
# Method: as §1, §2
# C. neoformans IFM5807 = assay: CLSI broth microdilution drug-sensitivity test; type: cell-based
# Method: as §1, §2
# M. gypseum IFM 59816 = assay: CLSI broth microdilution drug-sensitivity test; type: cell-based
# Method: as §1, §2
# [1] = system: T. mentagrophytes IFM 59813; assay: CLSI broth microdilution drug-sensitivity test; type: cell-based, Trichophyton mentagrophytes
# Method: as §1, §2
# tinea glabrosa = assay: Topical treatment of tinea glabrosa, case reports; type: in vivo, humans
# Method: Dermatomycosis includes dermatophytosis, cutaneous candidiasis, and malasseziosis. As time progresses with these diseases, a variety of fungi will parasitize the site.
# To 2.4 g of calcium benzoate trihydrate was added water to prepare 200 g of a 1% test solution. This solution was atomized twice a day for tinea glabrosa denoted by redness on the abdominal region.
# This red papule was treated twice a day with a 2% solution of ethylenediaminetetraacetic acid trisodium salt prepared in the same manner as in Example 5.
# [2] = JECFA evaluation of food additives; cited from earlier work
# interdigital tinea = conditions: Example 7: 2% test solution sprayed once daily between toes; Trichophyton rubrum
# hyperkeratotic tinea = assay: Topical treatment of hyperkeratotic tinea, case reports; type: in vivo, humans
# Excerpt: as §4, §5
# M. yamatoensis = assay: organism not typed; conditions: 168 h
# Method: as §1, §3
# M. dermatitis = assay: organism not typed; conditions: 168 h
# Method: as §1, §3
# M. japonica = assay: organism not typed; conditions: 168 h
# Method: as §1, §3
# M. restricta = assay: organism not typed; conditions: 168 h
# Method: as §1, §3
# M. slooffiae = assay: organism not typed; conditions: 168 h
# Method: as §1, §3
# M. sympodialis = assay: organism not typed; conditions: 168 h
# Method: as §1, §3
# M. obtusa = assay: organism not typed; conditions: 168 h
# Method: as §1, §3
# M. globosa = assay: microbe, parasite or virus in culture; conditions: Malassezia globosa, 168 h
# Method: as §1
# as §3, with “In comparison to the control (no test drug), the density required to completely prevent growth was set as the minimum inhibitory concentration (MIC).” left out
# Malassezia infection = conditions: Example 14: 1% test solution applied twice a day, lower-left abdomen
# [3] = T. mentagrophytes IFM 59813, broth microdilution
# [4] = Trichophyton mentagrophytes, IFM59813
# [5] = Example 11: 2% test solution, big toe immersed in fingerstall, Trichophyton rubrum
# [6] = Epidermophyton floccosum, IFM53345
# [7] = Cryptococcus neoformans, IFM5807
# Excerpt for small red papules: Dermatophyte was isolated from the papules in this case, and was confirmed through gene analysis to be Trichophyton mentagrophytes.
smiles,measurement,setting,value
O=C([O-])c1ccccc1.[Na+] [sodium benzoate],MIC,"E. floccosum IFM 53345; E. floccosum IFM 53345, broth microdilution",200 µg/mL
same,MIC,"M. furfur; M. furfur, 7 days at 32° C., complete prevention of growth",310 µg/mL
same,time until healthy nail restored,"tinea unguium; Example 13: 1% test solution in 20% ethanol, thumb nail soaked in fingerstall one day, 10 times",about 3 months
same,healing of tinea corporis,tinea corporis,heal tinea corporis
same,MIC,"T. rubrum IFM 59814; T. rubrum IFM 59814, broth microdilution",390 µg/mL
same,MIC,"A. fumigatus IFM4942; A. fumigatus IFM4942, broth microdilution",3100 µg/mL
same,MIC,"C. albicans IFM 5740; C. albicans IFM 5740, broth microdilution",6300 µg/mL
same,MIC,"C. neoformans IFM5807; C. neoformans IFM5807, broth microdilution",1600 µg/mL
same,MIC,"M. gypseum IFM 59816; M. gypseum IFM 59816, broth microdilution",1600 µg/mL
same,MIC,[1]; [3],200 µg/mL
O=C([O-])c1ccccc1.O=C([O-])c1ccccc1.[Mg+2] [magnesium benzoate],MIC,[1]; [3],780 µg/mL
O=C([O-])c1ccccc1.O=C([O-])c1ccccc1.[Ca+2] [calcium benzoate],curative effect against tinea of the skin,tinea glabrosa; 1% aqueous solution (Example 15),showed a curative effect
same,time until skin symptoms disappeared (tinea eliminated),"tinea glabrosa; Example 15: 1% test solution in water atomized twice a day, abdominal region",about two
O=C([O-])CN(CCN(CC(=O)O)CC(=O)O)CC(=O)[O-].[Na+].[Na+] [ethylenediaminetetraacetic acid disodium salt],permissible daily intake,[2],≤ 2.5 mg per 1 kg of body weight
same,healing of tinea corporis,tinea corporis,heal tinea corporis
same,MIC,[1]; [4],78 µg/mL
O=C([O-])CN(CCN(CC(=O)[O-])CC(=O)[O-])CC(=O)[O-].[Na+].[Na+].[Na+].[Na+] [ethylenediaminetetraacetic acid tetrasodium salt],time until skin symptoms disappeared and healthy skin returned,interdigital tinea,approximately 2 months
same,time until healthy nail grew from the nail base,tinea unguium; [5],approximately 2 months
same,time until recovery complete with a healthy nail,tinea unguium; [5],6 months
same,time until redness disappeared (tinea cured),"tinea corporis; Example 10: 0.01% test solution in 20% ethanol sprayed three times a day, thigh",approximately 2 weeks
same,MIC,[1]; [4],39 µg/mL
C/C=C/C=C/C(=O)[O-].[Na+] [sodium sorbate],MIC,"[1]; Trichophyton mentagrophytes, IFM59813, T. mentagrophytes IFM 59813, broth microdilution, read-out: MIC",780 µg/mL
C/C=C/C=C/C(=O)[O-].[K+] [potassium sorbate],MIC,E. floccosum IFM 53345; [6],200 µg/mL
same,MIC,"M. furfur; Malassezia furfur, 168 h",310 µg/mL
same,time until healthy nail regained,"tinea unguium; Example 13: 1% test solution (1% glycerin, 15% ethanol), big-toe toenail immersed 1 hour a day",about 9 months
same,healing of tinea corporis,tinea corporis,heal tinea corporis
same,MIC,"T. rubrum IFM 59814; Trichophyton rubrum, IFM59814",780 µg/mL
same,MIC,"A. fumigatus IFM4942; Aspergillus fumigatus, IFM4942",780 µg/mL
same,MIC,"C. albicans IFM 5740; Candida albicans, IFM5740",3100 µg/mL
same,MIC,C. neoformans IFM5807; [7],200 µg/mL
same,MIC,"M. gypseum IFM 59816; Nannizzia gypsea, IFM59816",780 µg/mL
same,MIC,[1]; [4],390 µg/mL
O=C([O-])CN(CCN(CC(=O)[O-])CC(=O)[O-])CC(=O)[O-].[Mg+2].[Na+].[Na+] [ethylenediaminetetraacetic acid magnesium disodium salt],MIC,[1]; [4],78 µg/mL
O=C([O-])c1ccccc1.[K+] [potassium benzoate],MIC,[1]; [3],780 µg/mL
O=C([O-])CN(CCN(CC(=O)[O-])CC(=O)O)CC(=O)[O-].[K+].[K+].[K+] [ethylenediaminetetraacetic acid tripotassium salt],MIC,[1]; [4],78 µg/mL
"CCC(C)n1ncn(-c2ccc(N3CCN(c4ccc(OCC5COC(Cn6cncn6)(c6ccc(Cl)cc6Cl)O5)cc4)CC3)cc2)c1=O (stereo not drawn) [Itrizole, reference compound]",outcome of oral therapy of tinea unguium,"tinea unguium; Example 16: oral therapy, left-foot big-toe toenail",ineffective
O=C([O-])CN(CCN(CC(=O)[O-])CC(=O)O)CC(=O)[O-].[Na+].[Na+].[Na+] [ethylenediaminetetraacetic acid trisodium salt],time until hyperkeratotic-type tinea eliminated and clean skin recovered,"hyperkeratotic tinea; Example 5: 2% test solution (glycerin, 15% ethanol), sprayed twice daily, sole of foot, T. mentagrophytes and Candida isolated",approximately 2 months
same,time until tinea eliminated and healthy skin returned,"hyperkeratotic tinea; Example 6: 1% test solution, foot immersed 1 hour a day",about one and a half
same,time until infected area entirely replaced by healthy skin,"hyperkeratotic tinea; Example 17: 2% test solution sprayed twice a day, base of toes to arch, Trichophyton rubrum",approximately 6 months
same,time until complete recovery of healthy skin,"hyperkeratotic tinea; Example 21: 5% test solution sprayed twice a day, left and right heels, Trichophyton rubrum",3 months
same,MIC,E. floccosum IFM 53345; [6],78 µg/mL
same,MIC,"M. furfur; Malassezia furfur, 168 h",63 µg/mL
same,MIC,M. yamatoensis,63 µg/mL
same,MIC,M. dermatitis,31 µg/mL
same,MIC,M. japonica,63 µg/mL
same,MIC,M. restricta,31 µg/mL
same,MIC,M. slooffiae,63 µg/mL
same,MIC,M. sympodialis,63 µg/mL
same,MIC,M. obtusa,31 µg/mL
same,time until healthy skin and nail recovered,"tinea unguium; Example 12: 2% test solution, little finger soaked in fingerstall at bedtime, T. mentagrophytes and Candida",2 months
same,outcome of tinea unguium treatment,"tinea unguium; Example 16: 2% test solution sprayed twice a day, big-toe toenail refractory to oral Itrizole",curing the tinea
same,time until tinea unguium cured,"tinea unguium; Example 20: 3% test solution sprayed twice a day, little-toe toenail, Trichophyton rubrum",approximately 8 months
same,time until healthy nail recovered,"tinea unguium; Example 22: 10% test solution in water applied once a day, right thumb nail, Trichophyton rubrum",about one
same,time until healthy nail restored,"tinea unguium; Example 23: 20% test solution (glycerin, water) applied twice a day, right thumbnail, Trichophyton rubrum",about 1 year
same,time until red flaring disappeared and healthy skin returned,"tinea corporis; Example 8: 1% test solution sprayed once a day, chest, Trichophyton mentagrophytes",approximately 2 weeks
same,time until skin symptoms disappeared or cicatrized (tinea corporis healed),"tinea corporis; Example 9: 1% test solution sprayed once a day, left thigh, considered M. canis",approximately one
same,healing of tinea corporis,tinea corporis,heal tinea corporis
same,MIC,M. globosa,63 µg/mL
same,MIC,"T. rubrum IFM 59814; Trichophyton rubrum, IFM59814",39 µg/mL
same,MIC,"A. fumigatus IFM4942; Aspergillus fumigatus, IFM4942",9.8 µg/mL
same,MIC,"C. albicans IFM 5740; Candida albicans, IFM5740",0.2 µg/mL
same,MIC,C. neoformans IFM5807; [7],9.8 µg/mL
same,MIC,"M. gypseum IFM 59816; Nannizzia gypsea, IFM59816",78 µg/mL
same,"time until papules disappeared, completely healed","small red papules; Example 18: 2% test solution sprayed twice a day, scalp at back of head",2 weeks
same,"time until papules disappeared, completely healed","small red papules; Example 19: 2% test solution sprayed twice a day, back of right thigh, Trichophyton mentagrophytes",10 days
same,MIC,[1]; [4],78 µg/mL
same,time until light-brown area disappeared,Malassezia infection,approximately 3 weeks
same,time until red papules cured completely,"tinea glabrosa; Example 23: 2% solution once or twice a day, thigh, abdomen, breast or back, Aspergillus tubingensis, Basidiomycete and other fungi",1-2 weeks
same,time until complete cure of red papule,"tinea glabrosa; Example 23: 2% solution twice a day, back of head, Aspergillus japonicus",two
